What is called IC50 is the concentration that inhibits the measured activity by half. Low values mean greater potency, high ones weaker potency. A word on the inhibition: it is the change of the read-out against control, counted positive when it falls.

One experiment has as its target T1, aldosterone synthase (Homo sapiens, UniProt P19099).
T1 construct: host or cells: NCI-H295R
T1 sequence (P19099 25-503): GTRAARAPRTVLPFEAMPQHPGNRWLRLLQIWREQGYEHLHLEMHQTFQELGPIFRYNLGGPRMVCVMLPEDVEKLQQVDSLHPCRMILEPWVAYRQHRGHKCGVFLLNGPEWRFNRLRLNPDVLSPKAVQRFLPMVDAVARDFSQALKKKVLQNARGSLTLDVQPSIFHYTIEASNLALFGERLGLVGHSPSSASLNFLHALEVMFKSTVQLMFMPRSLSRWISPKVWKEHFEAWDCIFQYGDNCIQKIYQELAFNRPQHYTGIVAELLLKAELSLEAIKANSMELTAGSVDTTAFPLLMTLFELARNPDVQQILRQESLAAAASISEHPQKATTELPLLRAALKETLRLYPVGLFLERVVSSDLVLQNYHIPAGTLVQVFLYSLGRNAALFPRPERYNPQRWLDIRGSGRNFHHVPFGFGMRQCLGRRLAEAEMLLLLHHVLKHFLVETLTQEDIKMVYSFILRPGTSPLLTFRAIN
Nature of the experiment: Aldosterone cell secretion in Ang II-stimulated NCI-H295R cells (SPA with anti-aldosterone antibody). Type of experiment: cell-based. Particulars: human adrenocortical carcinoma NCI-H295R cells, 1 μM Ang II, 24 h. An excerpt:
In particular, the aldosterone synthase inhibitory activities in vitro can be determined by the following assay.
Human adrenocortical carcinoma NCI-H295R cell line was obtained from American Type Culture Collection (Manassas, Va.). Insulin/transferrin/selenium (ITS)-A supplement (100×), DMEM/F-12, antibiotic/antimycotic (100×), and fetal bovine serum (FBS) were purchased from Invitrogen (Carlsbad, Calif.). Anti-mouse PVT scintillation proximity assay (SPA) beads and NBS 96-well plates were obtained from GE Health Sciences (Piscataway, N.J.) and Corning (Acton, Mass.), respectively. Solid black 96-well flat bottom plates were purchased from Costar (Corning, N.Y.). Aldosterone and angiotensin (Ang II) were purchased from Sigma (St. Louis, Mo.). D-[1,2,6,7-^3H(N)]aldosterone was acquired from PerkinElmer (Boston, Mass.). Nu-serum was a product of BD Biosciences (Franklin Lakes, N.J.).
On the following day, cells are rinsed with 100 μL of phosphate-buffered saline (PBS) and incubated with 100 μL of treatment medium containing 1 μM Ang II and a compound at different concentrations in quadruplicate wells at 37° C. for 24 h. At the end of incubation, 50 μL of medium is withdrawn from each well for measurement of aldosterone production by an SPA using mouse anti-aldosterone monoclonal antibodies.
Measurement of aldosterone activity can also be performed using a 96-well plate format. […] Anti-mouse PVT SPA beads (50 μL) are then added to each well and incubated overnight at room temperature prior to counting in a Microbeta plate counter. The amount of aldosterone in each sample is calculated by comparing with a standard curve generated using known quantities of the hormone.
(§1) Inhibition of the release of certain steroids can be used as a measure of the respective enzyme inhibition by the added test compounds. The dose-dependent inhibition of enzymatic activity by a compound is calculated by means of an inhibition plot which is characterized by an IC50.
The inhibition plot is calculated by fitting a 4-parameter logistic function to the raw data points using the least squares method. The equation of the 4-parameter logistic function is calculated as follows: Y=(d−a)/((1+(x/c)b))+a, where: a=minimum data level, b=gradient, I […], d=maximum data level, x=inhibitor concentration.

Experiment [1] concerns the target T2, CYP11B1 (steroid 11 β-hydroxylase) (Homo sapiens, UniProt P15538).
T2 construct: the NCI-H295R cells have CYP11B1 (steroid 11 β-hydroxylase); host or cells: NCI-H295R
T2 sequence (P15538 25-503): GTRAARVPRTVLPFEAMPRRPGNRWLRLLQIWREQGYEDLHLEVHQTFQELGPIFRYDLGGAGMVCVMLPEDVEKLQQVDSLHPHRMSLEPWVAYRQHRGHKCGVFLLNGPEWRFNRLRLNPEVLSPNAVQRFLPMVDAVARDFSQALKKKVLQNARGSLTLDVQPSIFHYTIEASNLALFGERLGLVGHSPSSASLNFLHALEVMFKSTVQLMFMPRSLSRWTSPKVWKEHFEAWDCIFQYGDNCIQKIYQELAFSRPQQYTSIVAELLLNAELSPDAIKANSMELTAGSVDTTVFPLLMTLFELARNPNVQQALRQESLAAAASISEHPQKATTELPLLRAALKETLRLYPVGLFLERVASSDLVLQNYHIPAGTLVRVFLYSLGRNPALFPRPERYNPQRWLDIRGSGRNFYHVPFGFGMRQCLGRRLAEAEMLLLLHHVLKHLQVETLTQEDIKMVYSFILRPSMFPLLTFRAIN
Description: Cortisol cell secretion in NCI-H295R cells (in vitro inhibitory activity for CYP11B1). The format is cell-based. Particulars: compound at 1 μM.
Description: The in vitro inhibitory activities for CYP11B1 can be determined by the following assay.
The cell line NCI-H295R was originally isolated from an adrenocortical carcinoma and has been characterized in the literature through the stimulable secretion of steroid hormones and the presence of the enzymes essential for steroidogenesis. Thus, the NCI-H295R cells have CYP11B1 (steroid 11 β-hydroxylase). The cells show the physiological property of zonally undifferentiated human fetal adrenocortical cells which, however, have the capacity to produce the steroid hormones which are formed in the three, phenotypically distinguishable zones in the adult adrenal cortex.
The NCI-H295R cells (American Type Culture Collection, ATCC, Rockville, Md., USA) are grown in Dulbeoco's Modified Eagle'Ham F-12 Medium (DME/F12), which has been supplemented with Ulroser SF Serum (Soprachem, Cergy-Saint-Christophe, France), insulin, transferrin, selenite (I-T-S, Becton Dickinson Biosiences, Franklin lakes, N.J., USA) and antibiotics in 75 cm^2 cell culture vessels at 37° C. and in a 95% air-5% carbon dioxide atmosphere. The cells are subsequently transferred for colony formation into a 24-well incubation vessel. They are cultivated there in DME/F12 medium, which is now supplemented with 0.1% bovine serum instead of Ultroser SF for 24 hours. The experiment is initiated by cultivating the cells in DME/F12 medium which is supplemented with 0.1% bovine serum albumin and test compound, in the presence or absence of cell stimulants, for 72 hours. The test substance is added in a concentration range from 0.2 nanomolar to […]. Cell stimulants which can be used are angiotensin II ([…] or 100 nanomolar), potassium ions (16 millimolar), forskolin (10 micromolar) or a combination of two stimulants.
The excretion of aldosterone, cortisol, corticosterone and estradiol/estrone into the culture medium can be detected and quantified by commercially available, specific monoclonal antibodies in radioimmunoassays in accordance with the manufacturer's instructions.
as §1
The inhibition activity of CYP11B1 production can also be expressed in percentage inhibition (% inhibition) at a given concentration (e.g. % inhibition at 1 μM), which is the cortisol level when cell is treated with the given concentration of a compound of the invention (e.g. concentration of 1 μM) versus the cortisol excretion when cell is free of the compound of the invention. % inhibition cortisol production=[(Y′−X′)/Y′]×100 wherein X′ is the level of cortisol when the cell is treated with a compound of Formula I; and Y′ is the level of cortisol when the cell is free of compound of Formula I.

As to `CCCC(NS(=O)(=O)CC)c1cncc(-c2ccc(C#N)c(Cl)c2)c1` (racemic) [N-(1-(5-(3-chloro-4-cyanophenyl)pyridin-3-yl)butyl)ethanesulfonamide: Racemate, N-(1-(5-(3-chloro-4-cyanophenyl)pyridin-3-yl)butyl)ethanesulfonamide], the IC50 at aldosterone synthase amounted to 132 nM. Also, in experiment [1] (NCI-H295R), the inhibition at 1 µM was 25%.
With `CCCC(NS(=O)(=O)CC)c1cncc(-c2ccc(C#N)c(Cl)c2)c1` (single isomer, unassigned) [N-(1-(5-(3-chloro-4-cyanophenyl)pyridin-3-yl)butyl)ethanesulfonamide], inhibition on aldosterone synthase was half-maximal at 89 nM (IC50). Moreover, in experiment [1] (NCI-H295R), the inhibition at 1 µM is 26%.
For the molecule `CCS(=O)(=O)NC(C)c1cncc(-c2ccc(C#N)c(Cl)c2)c1` (single isomer, unassigned) [N-(1-(5-(3-chloro-4-cyanophenyl)pyridin-3-yl)ethyl)ethanesul] [N-(1-(5-(3-chloro-4-cyanophenyl)pyridin-3-yl)ethyl)ethanesulfonamide], the “Cortisol cell secretion (% inhibition @ 1 μM)” value in experiment [1] is on record as 50%.
Consider `CCS(=O)(=O)NC(C)c1cncc(-c2ccc(C#N)c(Cl)c2)c1` (single isomer, unassigned) [N-(1-(5-(3-chloro-4-cyanophenyl)pyridin-3-yl)ethyl)ethanesulfonamide], for which the IC50 at aldosterone synthase (Enantiomer 1) was 49 nM; on aldosterone synthase (Enantiomer 2), 74 nM. The inhibition at 1 µM in experiment [1] (NCI-H295R) came out at 53%.
As for `CCS(=O)(=O)NC(C)c1cncc(-c2ccc(C#N)c(OC)c2)c1` (single isomer, unassigned) [N-(1-(5-(4-cyano-3-methoxyphenyl)pyridin-3-yl)ethyl)ethanesu] [N-(1-(5-(4-cyano-3-methoxyphenyl)pyridin-3-yl)ethyl)ethanesulfonamide], the “Cortisol cell secretion (% inhibition @ 1 μM)” value in experiment [1] is given as 27%.
Take `CCS(=O)(=O)NC(C)c1cncc(-c2ccc(C#N)c(OC)c2)c1` (single isomer, unassigned) [N-(1-(5-(4-cyano-3-methoxyphenyl)pyridin-3-yl)ethyl)ethanesulfonamide]: the IC50 against aldosterone synthase (Enantiomer 1) was 64 nM; on aldosterone synthase (Enantiomer 2), 140 nM. Moreover, the inhibition at 1 µM in experiment [1] (NCI-H295R) was 38%.
For the molecule `CCS(=O)(=O)NC(c1cncc(-c2ccc(C#N)c(OC)c2)c1)C1CC1` (single isomer, unassigned) [N-(5-(4-cyano-3-methoxyphenyl)pyridin-3-yl)(cyclopropyl)methyl)ethanesulfonamide], the IC50 came to 111 nM against aldosterone synthase (Enantiomer 1) and 41 nM at aldosterone synthase (Enantiomer 2). Also, the inhibition at 1 µM in experiment [1] (NCI-H295R) came out at 25%.
In the case of `CCS(=O)(=O)NC(c1cncc(-c2ccc(C#N)c(OC)c2)c1)C1CC1` (single isomer, unassigned) [N-((5-(4-cyano-3-methoxyphenyl)pyridin-3-yl)(cyclopropyl)met] [N-(5-(4-cyano-3-methoxyphenyl)pyridin-3-yl)(cyclopropyl)methyl)ethanesulfonamide], in experiment [1], the “Cortisol cell secretion (% inhibition @ 1 μM)” value amounted to 44%.
`N#Cc1ccc(-c2cncc(CN3CCCS3(=O)=O)c2)cc1Cl` [2-Chloro-4-[5-(1,1-dioxo-isothiazolidin-2-ylmethyl)-pyridin-3-yl]-benzonitrile]: on aldosterone synthase, half-maximal inhibition (IC50) was put at 12 nM. Also, the inhibition at 1 µM in experiment [1] (NCI-H295R) came out at 64%.
`CCS(=O)(=O)N[C@@H](c1cncc(-c2ccc(C#N)c(Cl)c2)c1)C1CC1` [(R)-N-((5-(3-chloro-4-cyanophenyl)pyridin-3-yl)(cyclopropyl)methyl)ethanesulfonamide]: it took 56 nM to reach half-maximal inhibition against aldosterone synthase (IC50). Moreover, the inhibition at 1 µM in experiment [1] (NCI-H295R) stood at 29%.
In the case of `CCS(=O)(=O)N[C@H](c1cncc(-c2ccc(C#N)c(Cl)c2)c1)C1CC1` [(S)-N-((5-(3-chloro-4-cyanophenyl)pyridin-3-yl)(cyclopropyl)methyl)ethanesulfonamide], on aldosterone synthase, the IC50 was determined as 24 nM. Also, the inhibition at 1 µM in experiment [1] (NCI-H295R) was determined as 38%.
In turn, `CCS(=O)(=O)NCc1cncc(-c2cc3ccc(Cl)nc3n2C)c1` [Ethanesulfonic acid [5-(6-chloro-1-methyl-1H-pyrrolo[2,3-b]pyridin-2-yl)-pyridin-3-ylmethyl]-amide] gave an IC50 against aldosterone synthase of 8 nM. In experiment [1], the inhibition at 1 µM turned out to be 40%.
Consider `CCS(=O)(=O)NCc1cncc(-c2cc3cnc(Cl)cc3n2C)c1` [Ethanesulfonic acid [5-(6-chloro-1-methyl-1H-pyrrolo[3,2-c]pyridin-2-yl)-pyridin-3-ylmethyl]-amide], for which half-maximal inhibition at aldosterone synthase (IC50) required 165 nM. The inhibition at 1 µM in experiment [1] turned out to be 15%.
The molecule `CCS(=O)(=O)N(CCO)C(c1cncc(-c2ccc(C#N)c(Cl)c2)c1)C1CC1` (centres unmarked) [Ethanesulfonic acid {[5-(3-chloro-4-cyano-phenyl)-pyridin-3-yl]-cyclopropyl-methyl}-(2-hydroxy-ethyl)-amide] gave an IC50 on aldosterone synthase of 20 nM. For the same molecule, in experiment [1] (NCI-H295R), the inhibition at 1 µM was 51%.
The matching figures for `CCS(=O)(=O)N(CC(C)C)C(c1cncc(-c2ccc(C#N)c(Cl)c2)c1)C1CC1` (centres unmarked) [Ethanesulfonic acid {[5-(3-chloro-4-cyano-phenyl)-pyridin-3-yl]-cyclopropyl-methyl}-isobutyl-amide]: 98 nM and 35%.
The matching figures for `CCS(=O)(=O)NC1CC1c1cncc(-c2cccc(Cl)c2Cl)c1` (centres unmarked) [N-(2-(5-(2,3-dichlorophenyl)pyridin-3-yl)cyclopropyl)ethane-sulfonamide]: 3 nM and 75%.

The record behind these values is patent US8809545B2, “Aryl pyridine as aldosterone synthase inhibitors” (Novartis AG, priority 2009, dated 2014).
